Tested on: G3BP1 NFT2
Format: binding, human
Conditions: library DMS-CoV; bait G3BP1 NFT2; prey N; peptide APRITFGGPSDSTGSN; listed as aa = residue placed at this position; column sums to 1

Sequence	DMS PSSM value, S (position 15)	DMS PSSM value, T (position 5)	DMS PSSM value, R (position 3)	DMS PSSM value, F (position 6)	DMS PSSM value, D (position 11)	DMS PSSM value, G (position 7)	DMS PSSM value, I (position 4)	DMS PSSM value, A (position 1)	DMS PSSM value, P (position 2)	DMS PSSM value, S (position 12)
APRITFGGPSDSTGSN S15N (APRITFGGPSDSTGNN)	0.001916									
APRITFGGPSDSTGSN T5R (APRIRFGGPSDSTGSN)		0								
APRITFGGPSDSTGSN R3Y (APYITFGGPSDSTGSN)			0.03984							
APRITFGGPSDSTGSN F6S (APRITSGGPSDSTGSN)				0						
APRITFGGPSDSTGSN R3V (APVITFGGPSDSTGSN)			0.00164							
APRITFGGPSDSTGSN D11N (APRITFGGPSNSTGSN)					0.02182					
APRITFGGPSDSTGSN G7Q (APRITFQGPSDSTGSN)						0.005359				
APRITFGGPSDSTGSN D11G (APRITFGGPSGSTGSN)					0					
APRITFGGPSDSTGSN I4D (APRDTFGGPSDSTGSN)							0			
APRITFGGPSDSTGSN A1M (MPRITFGGPSDSTGSN)								0.03133		
APRITFGGPSDSTGSN S15L (APRITFGGPSDSTGLN)	0.01038									
APRITFGGPSDSTGSN P2W (AWRITFGGPSDSTGSN)									0	
APRITFGGPSDSTGSN I4R (APRRTFGGPSDSTGSN)							0			
APRITFGGPSDSTGSN D11M (APRITFGGPSMSTGSN)					0.4258					
APRITFGGPSDSTGSN R3W (APWITFGGPSDSTGSN)			0.01451							
APRITFGGPSDSTGSN D11P (APRITFGGPSPSTGSN)					0.007134					
APRITFGGPSDSTGSN S12A (APRITFGGPSDATGSN)										0.01432
APRITFGGPSDSTGSN D11L (APRITFGGPSLSTGSN)					0.001888					
APRITFGGPSDSTGSN S12F (APRITFGGPSDFTGSN)										0.0072
APRITFGGPSDSTGSN G7Y (APRITFYGPSDSTGSN)						0				

Sequence	DMS PSSM value, S (position 15)	DMS PSSM value, T (position 5)	DMS PSSM value, R (position 3)	DMS PSSM value, F (position 6)	DMS PSSM value, D (position 11)	DMS PSSM value, G (position 7)	DMS PSSM value, I (position 4)	DMS PSSM value, A (position 1)	DMS PSSM value, P (position 2)	DMS PSSM value, S (position 12)
APRITFGGPSDSTGSN F6N (APRITNGGPSDSTGSN)				0						
APRITFGGPSDSTGSN G7T (APRITFTGPSDSTGSN)						0				
APRITFGGPSDSTGSN F6Y (APRITYGGPSDSTGSN)				0.004533						
APRITFGGPSDSTGSN P2Y (AYRITFGGPSDSTGSN)									0	
APRITFGGPSDSTGSN D11Q (APRITFGGPSQSTGSN)					0.007406					
APRITFGGPSDSTGSN T5E (APRIEFGGPSDSTGSN)		0.4512								
APRITFGGPSDSTGSN S15H (APRITFGGPSDSTGHN)	0.01115									
APRITFGGPSDSTGSN S12Q (APRITFGGPSDQTGSN)										0.01405
APRITFGGPSDSTGSN S15M (APRITFGGPSDSTGMN)	0.006693									
APRITFGGPSDSTGSN S12I (APRITFGGPSDITGSN)										0.4295
APRITFGGPSDSTGSN P2N (ANRITFGGPSDSTGSN)									0	
APRITFGGPSDSTGSN S12W (APRITFGGPSDWTGSN)										0.01354
APRITFGGPSDSTGSN I4P (APRPTFGGPSDSTGSN)							0			
APRITFGGPSDSTGSN A1I (IPRITFGGPSDSTGSN)								0.004309		
APRITFGGPSDSTGSN I4F (APRFTFGGPSDSTGSN)							0			
APRITFGGPSDSTGSN G7I (APRITFIGPSDSTGSN)						0				
APRITFGGPSDSTGSN T5A (APRIAFGGPSDSTGSN)		0								
APRITFGGPSDSTGSN I4M (APRMTFGGPSDSTGSN)							0			
APRITFGGPSDSTGSN G7F (APRITFFGPSDSTGSN)						0				
APRITFGGPSDSTGSN T5F (APRIFFGGPSDSTGSN)		0								

Same assay, conditions: library DMS-CoV; bait G3BP1 NFT2; prey N; peptide APRITFGGPSDSTGSN; listed as aa = residue placed at this position; column sums to 1

Sequence	DMS PSSM value, G (position 8)	DMS PSSM value, T (position 13)	DMS PSSM value, P (position 9)	DMS PSSM value, S (position 10)	DMS PSSM value, G (position 14)
APRITFGGPSDSTGSN G8K (APRITFGKPSDSTGSN)	0				
APRITFGGPSDSTGSN T13W (APRITFGGPSDSWGSN)		0			
APRITFGGPSDSTGSN P9S (APRITFGGSSDSTGSN)			0.003052		
APRITFGGPSDSTGSN T13Y (APRITFGGPSDSYGSN)		0.001423			
APRITFGGPSDSTGSN S10I (APRITFGGPIDSTGSN)				0.2604	
APRITFGGPSDSTGSN T13I (APRITFGGPSDSIGSN)		0.0005621			
APRITFGGPSDSTGSN S10N (APRITFGGPNDSTGSN)				0	
APRITFGGPSDSTGSN S10L (APRITFGGPLDSTGSN)				0.002677	
APRITFGGPSDSTGSN S10A (APRITFGGPADSTGSN)				0.0189	
APRITFGGPSDSTGSN G8P (APRITFGPPSDSTGSN)	0.001619				
APRITFGGPSDSTGSN G14E (APRITFGGPSDSTESN)					0.002668

Reference: paper PMC12102759 (Protein Science : A Publication of the Protein Society, 2025)
